{
  "source": "patent US20170247458A1",
  "about": "“Safety for Treating Cancers with a Glycosylated Chimeric Antibody to EGFR” (Sorrento Therapeutics, Inc., priority 2016, published 2017)",
  "key": {"[1]": {"test": "Phase 2/3 study, safety evaluation and adverse events", "conditions": "Table 7"}, "[2]": {"system": "EGFR positive, metastatic colorectal cancer", "test": "Phase 2/3 study, radiologic response and survival"}, "[3]": {"conditions": "human, in vivo"}},
  "data": [
    {"smiles": "CCc1c2c(nc3ccc(OC(=O)N4CCC(N5CCCCC5)CC4)cc13)-c1cc3c(c(=O)n1C2)COC(=O)[C@]3(O)CC", "note": "[Irinotecan monotherapy, irinotecan]", "values": [
      {"measurement": "Test drug-related death AE, number of patients", "setting": "[1]", "result": 0},
      {"measurement": "Complete response, number of patients", "setting": "[2]; Ph2/3 trial", "result": 1},
      {"measurement": "Complete response, rate in parentheses", "setting": "[2]; Ph2/3 trial", "result": 0.6},
      {"measurement": "Partial response, number of patients", "setting": "[2]; Ph2/3 trial", "result": 20},
      {"measurement": "Partial response, rate in parentheses", "setting": "[2]; Ph2/3 trial", "result": 12.2},
      {"measurement": "Progressive disease, number of patients", "setting": "[2]; Ph2/3 trial", "result": 44},
      {"measurement": "Progressive disease, rate in parentheses", "setting": "[2]; Ph2/3 trial", "result": 26.8},
      {"measurement": "Stable disease, number of patients", "setting": "[2]; Ph2/3 trial", "result": 86},
      {"measurement": "Stable disease, rate in parentheses", "setting": "[2]; Ph2/3 trial", "result": 52.4},
      {"measurement": "Time to disease progression", "setting": "[2]; Ph2/3 trial", "result": 4.1, "unit": "months"},
      {"measurement": "Unable to evaluate, number of patients", "setting": "[2]; Ph2/3 trial", "result": 13},
      {"measurement": "Unable to evaluate, rate in parentheses", "setting": "[2]; Ph2/3 trial", "result": 7.9},
      {"measurement": "Overall response rate, number of patients", "setting": "[2]; sum of CR and PR", "result": 21},
      {"measurement": "Overall response rate, rate in parentheses", "setting": "[2]; sum of CR and PR, interval in brackets not copied", "result": 12.8},
      {"measurement": "Disease control rate, number of patients", "setting": "[2]; sum of CR, PR and SD", "result": 107},
      {"measurement": "Disease control rate, rate in parentheses", "setting": "[2]; sum of CR, PR and SD, interval in brackets not copied", "result": 65.2},
      {"measurement": "At least one ADR, number of patients", "setting": "[3]", "result": 126},
      {"measurement": "At least one ADR, share of patients", "setting": "[3]", "result": 74.1, "unit": "%"},
      {"measurement": "At least one AE which lead to stop drug treatment, number of patients", "setting": "[3]", "result": 27},
      {"measurement": "At least one AE which lead to stop drug treatment, share of patients", "setting": "[3]", "result": 15.9, "unit": "%"},
      {"measurement": "At least one AE, number of patients", "setting": "[3]", "result": 148},
      {"measurement": "At least one AE, share of patients", "setting": "[3]", "result": 87.1, "unit": "%"},
      {"measurement": "At least one Level □ or above ADR, number of patients", "setting": "[3]", "result": 10},
      {"measurement": "At least one Level □ or above ADR, share of patients", "setting": "[3]", "result": 5.9, "unit": "%"},
      {"measurement": "At least one Level □ or above AE, number of patients", "setting": "[3]", "result": 12},
      {"measurement": "At least one Level □ or above AE, share of patients", "setting": "[3]", "result": 7.1, "unit": "%"},
      {"measurement": "At least one Level □ or above important AE, number of patients", "setting": "[3]", "result": 11},
      {"measurement": "At least one Level □ or above important AE, share of patients", "setting": "[3]", "result": 6.5, "unit": "%"},
      {"measurement": "At least one SAE, number of patients", "setting": "[3]", "result": 8},
      {"measurement": "At least one SAE, share of patients", "setting": "[3]", "result": 4.7, "unit": "%"},
      {"measurement": "At least one important AE, number of patients", "setting": "[3]", "result": 120},
      {"measurement": "At least one important AE, share of patients", "setting": "[3]", "result": 70.6, "unit": "%"},
      {"measurement": "At least one test drug-related SAE, number of patients", "setting": "[3]", "result": 1},
      {"measurement": "At least one test drug-related SAE, share of patients", "setting": "[3]", "result": 0.6, "unit": "%"},
      {"measurement": "Grade 3-4 Abdominal pain, number", "setting": "[3]", "result": 0},
      {"measurement": "Grade 3-4 Acne-like rash, number", "setting": "[3]", "result": 0},
      {"measurement": "Grade 3-4 Anemia, number", "setting": "[3]", "result": 3},
      {"measurement": "Grade 3-4 Anemia, value in parentheses", "setting": "[3]", "result": "(1.8)"},
      {"measurement": "Grade 3-4 Asthenia, number", "setting": "[3]", "result": 6},
      {"measurement": "Grade 3-4 Asthenia, value in parentheses", "setting": "[3]", "result": "(3.7)"},
      {"measurement": "Grade 3-4 Diarrhea, number", "setting": "[3]", "result": 12},
      {"measurement": "Grade 3-4 Diarrhea, value in parentheses", "setting": "[3]", "result": "(7.3)"},
      {"measurement": "Grade 3-4 Fever, number", "setting": "[3]", "result": 1},
      {"measurement": "Grade 3-4 Fever, value in parentheses", "setting": "[3]", "result": "(0.9)"},
      {"measurement": "Grade 3-4 Nausea and vomiting, number", "setting": "[3]", "result": 16},
      {"measurement": "Grade 3-4 Nausea and vomiting, value in parentheses", "setting": "[3]", "result": "(9.8)"},
      {"measurement": "Grade 3-4 Neutropenia, number", "setting": "[3]", "result": 14},
      {"measurement": "Grade 3-4 Neutropenia, value in parentheses", "setting": "[3]", "result": "(8.5)"},
      {"measurement": "Grade 3-4 Stomatitis, number", "setting": "[3]", "result": 0},
      {"measurement": "Grade 3-4 Thrombocytopenia, number", "setting": "[3]", "result": 0},
      {"measurement": "Grade 3-4 adverse events, Any, number", "setting": "[3]", "result": 57}
    ]}
  ]
}
